{
  "source": "patent US11291674B2",
  "about": "(CALITHERA BIOSCIENCES, INC., priority 2016, dated 2022)",
  "key": {"LLC cell line": {"tested_on": "LLC cell line", "assay": "Cytotoxicity assay (CellTiterGlo), LLC", "format": "cell-based, murine", "conditions": "1 mM arginase inhibitor, 72 h", "protocol": "(§1) Cytotoxicity assays. […] Cytotoxicity was assayed by the addition of CellTiterGlo reagent according to the manufacturer's instructions (Promega, Madison, Wis.) followed by […] quantification on a Molecular Devices plate reader (Sunnyvale, Calif.)."}, "[1]": {"target": "T1, Rat cerebellar neuronal NOS (Rattus norvegicus, UniProt P29476)", "T1 construct": "native rat cerebellar neuronal NOS; tissue Eurofins/Cerep Panlabs (contract laboratory that ran the assay); host or cells: rat cerebellum", "assay": "NOS activity assay, neuronal NOS", "format": "biochemical", "conditions": "50 μM arginase inhibitor", "text": "(§2) Nitric oxide (NO) synthase (NOS) activity assays.\n(§3) Standard deviations are indicated in parentheses. […] N/A=not applicable."}, "LLC tumors": {"tested_on": "LLC tumors", "assay": "LLC syngeneic tumor model", "format": "in vivo, mouse", "text": "(§4) Murine tumor studies. Female wild-type C57BL/6 and Balb/c mice (5-6 weeks old) were purchased from Charles River Laboratories (Hollister, Calif.). Severe combined immune deficient (SCID, B6.CB17-PrkdcSCID/SzJ) and Pmel-1 TCR transgenic (B6.Cg-Thyla/Cy Tg(TcraTcrb)8Rest/J) mice (5-6 weeks old) were purchased from The Jackson Laboratory (Bar Harbor, Me.). All mice were housed and treated in accordance with Institutional Animal Care and Use Committee guidelines. For the 4T1 tumor model, 1×10^5 cells were injected orthotopically into the mammary fat pad; for all other tumor models, 1×10^6 cells were injected subcutaneously (s.c.) in the right flank. […] Control groups received vehicle (water) twice daily by gavage. Tumor volume measured by digital caliper (length×width×width/2) and body weight were recorded three times weekly. Animals were euthanized when tumors necrotized or volumes reached 2000 mm^3. Anti-PD-L1 antibody (5 mg/kg, clone 10F.9G2, BioXCell, West Lebanon, N.H.) was injected intraperitoneally (i.p.) on days 5, 7, 9, 11, 13, and 15 for the CT26 model. Gemcitabine (Selleckchem, Houston, Tex.) was dosed 50 mg/kg i.p. on days 10 and 16 for the CT26 model or 60 mg/kg i.p. on days 6 and 10 for the LLC model. For CD8^+ cell depletion, mice were injected i.p. with anti-CD8 antibody (25 mg/kg, clone 2.43, BioXCell) on days −1, 0, +5, and +10. For NK cell depletion, mice were injected i.p. with anti-NK1.1 antibody (25 mg/kg, clone PK136, BioXCell) in the LLC and B16 models or with anti-Asialo GM1 sera (20 μL, Wako Chemicals, Richmond, Va.) in the CT26 model, per the same schedule as anti-CD8.\n(§5) Tumor dissociation and flow cytometry. […] Excised tumors were placed in RPMI-1640 containing 5% FBS on ice, minced with a razor blade, and dissociated in RPMI-1640 supplemented with mouse tumor dissociation enzymes (Miltenyi Biotec, Bergisch Gladbach, Germany) on a GentleMACS Octo Dissociator With Heat (Miltenyi Biotec) according to the manufacturer's instructions. Dissociated tumors were strained through 70 μm nylon mesh, washed with cold PBS containing 2% FBS, blocked with anti-CD16/CD32 (Fc block antibody, eBioscience), and stained for cell surface antigens. For B16 and 4T1 tumors, washed dissociated tumor cells were incubated with Dead Cell Removal MicroBeads (Miltenyi Biotec) and applied to a magnetic column prior to staining. For intracellular staining, cells were fixed and permeabilized using buffers purchased from R&D Systems or eBioscience for cytoplasmic or nuclear antigens, respectively. All tumor flow experiments were acquired on an Attune N×T flow cytometer and analyzed with FlowJo software version 10 (Ashland, Oreg.), using fluorescence-minus-one controls for gating and single-stained OneComp eBeads (eBioscience) to set compensation matrices.\nGene expression analysis. […] RNA was extracted for gene expression analysis and transcripts were quantified by NanoString Technologies (Seattle, Wash.).\nCytokine analysis. […] Tumors were homogenized in 50 mM Tris-HCl buffer containing 2 mM EDTA, pH 7.4 and protease inhibitors. The homogenate was centrifuged and the supernatant was collected and re-frozen. Cytokines in the supernatant were quantified by Myriad Rules Based Medicine (Austin, Tex.)."}, "[2]": {"tested_on": "intracellular arginase in Human HepG2 cell line", "assay": "Native arginase activity in intact cells, HepG2", "format": "cell-based", "conditions": "mean (SD), N=3, 10 mM L-arginine, urea in media after 24 h", "text": "Native arginase activity in intact cells.\nStandard deviations are indicated in parentheses."}, "[3]": {"target": "T2, Recombinant bovine endothelial NOS (Bos taurus, UniProt P29473)", "T2 construct": "Eurofins/Cerep Panlabs (contract laboratory that ran the assay)", "assay": "NOS activity assay, endothelial NOS", "format": "biochemical", "conditions": "50 μM arginase inhibitor", "text": "as §2, §3"}, "CT26 cell line": {"tested_on": "CT26 cell line", "assay": "Cytotoxicity assay (CellTiterGlo), CT26", "format": "cell-based, murine", "conditions": "1 mM arginase inhibitor, 72 h", "protocol": "as §1"}, "CT26 tumors": {"tested_on": "CT26 tumors", "format": "in vivo", "text": "as §4, §5"}, "4T1 tumors": {"tested_on": "4T1 tumors", "assay": "4T1 orthotopic tumor model", "format": "in vivo, mouse", "text": "as §4, §5"}, "[4]": {"conditions": "100 mg/kg BID, study day 14, flow cytometry"}, "[5]": {"conditions": "100 mg/kg BID, study day 10, flow cytometry"}},
  "note": "Entries after “also recorded” stand apart in the source; their conditions may differ.",
  "data": [
    {"smiles": "C[C@H](N)C(=O)N1C[C@H](CCCB(O)O)[C@](N)(C(=O)O)C1", "note": "[arginase inhibitor]", "values": [
      {"measurement": "Growth inhibition of LLC cell line", "setting": "LLC cell line", "value": "No growth inhibition"},
      {"measurement": "Inhibition of neuronal NOS", "setting": "[1]", "value": "No inhibition"},
      {"measurement": "Tumor growth, single agent", "setting": "LLC tumors; 100 mg/kg BID PO", "value": "significantly inhibited the growth"},
      {"measurement": "Transcripts of interferon-responsive genes in tumors vs vehicle", "setting": "LLC tumors; 100 mg/kg BID, Nanostring", "value": "increases"},
      {"measurement": "CD8+ T cells in the tumor vs vehicle", "setting": "LLC tumors; [4]", "value": "increase"},
      {"measurement": "CD68+ macrophages in the tumor vs vehicle", "setting": "LLC tumors; [4]", "value": "decrease"},
      {"measurement": "Effect of depletion of CD8+ cells on efficacy", "setting": "LLC tumors; 100 mg/kg twice daily, anti-CD8", "value": "smaller effect"},
      {"measurement": "Efficacy after depletion of NK cells", "setting": "LLC tumors; 100 mg/kg twice daily, anti-NK1.1", "value": "loss of efficacy"},
      {"measurement": "Inflammatory cytokines in tumors vs vehicle", "setting": "LLC tumors; 200 mg/kg BID, Luminex", "value": "increases"},
      {"measurement": "Tumor growth inhibition, combination with gemcitabine", "setting": "LLC tumors; gemcitabine 60 mg/kg i.p. days 6 and 10", "value": "significant increase in tumor growth inhibition"},
      {"measurement": "IC50", "setting": "[2]", "value": 32, "unit": "µM"},
      {"measurement": "Inhibition of endothelial NOS", "setting": "[3]", "value": "No inhibition"},
      {"measurement": "Growth inhibition of CT26 cell line", "setting": "CT26 cell line", "value": "No growth inhibition"},
      {"measurement": "Tumor growth, single agent", "setting": "CT26 tumors; 100 mg/kg BID PO", "value": "significantly inhibited the growth; also recorded: reduced"},
      {"measurement": "Tumor-infiltrating activated CD25+ CD8+ cytotoxic T cells vs vehicle", "setting": "CT26 tumors; [4]", "value": "increase"},
      {"measurement": "Efficacy after depletion of either CD8+ cells or NK cells", "setting": "CT26 tumors; 100 mg/kg twice daily, depleting antibodies", "value": "blocked the efficacy"},
      {"measurement": "Tumor growth inhibition, combination with anti-PD-L1", "setting": "CT26 tumors; arginase inhibitor 100 mg/kg BID plus anti-PD-L1 5 mg/kg i.p., vs monotherapies", "value": "enhanced"},
      {"measurement": "Survival at study day 46, combination with anti-PD-L1", "setting": "CT26 tumors; arginase inhibitor plus anti-PD-L1", "value": 90, "unit": "%"},
      {"measurement": "Complete responses, combination with anti-PD-L1", "setting": "CT26 tumors; arginase inhibitor plus anti-PD-L1, N=10 per group", "value": "six"},
      {"measurement": "Tumor growth inhibition, combination with gemcitabine", "setting": "CT26 tumors; gemcitabine 50 mg/kg i.p. days 10 and 16", "value": "significant increase in tumor growth inhibition"},
      {"measurement": "Tumor growth, single agent", "setting": "4T1 tumors; 100 mg/kg BID PO", "value": "significantly inhibited the growth; also recorded: modest effect on tumor growth"},
      {"measurement": "CD3+ T cells in the tumor vs vehicle", "setting": "4T1 tumors; [5]", "value": "increase"},
      {"measurement": "Myeloid cells in the tumor vs vehicle", "setting": "4T1 tumors; [5]", "value": "decrease"},
      {"measurement": "NK cells in the tumor vs vehicle", "setting": "4T1 tumors; [5]", "value": "increase"}
    ]}
  ]
}
